Assay results: US7361665B2, “Inhibitors of c-Jun N-terminal kinases (JNK) and other protein kinases” (Vertex Pharmaceuticals Incorporated, priority 2002, dated 2008)

Biological target: T1, JNK3 (Homo sapiens, UniProt P53779)
T1 construct: One such construct encodes amino acid residues Ser40-Glu402 of JNK3α1 and is preceded by Met and Gly residues; Met-Gly dipeptide (initiation Met plus Gly added for the NcoI site) (N); made in house; host or cells: E. coli BL21 (DE3)
Experiment: JNK inhibition assay (spectrophotometric coupled-enzyme assay)
Type: biochemical
Settings: activated JNK3 10 nM, 10 μM ATP, 30° C.; read-out: JNK3 Activity (Ki rating)
From the text: A BLAST search of the EST database using the published JNK3α1 cDNA as a query identified an EST clone (#632588) that contained the entire coding sequence for human JNK3α1. Polymerase chain reactions (PCR) using pfu polymerase (Strategene) were used to introduce restriction sites into the cDNA for cloning into the pET-15B expression vector at the NcoI and BamHI sites. The protein was expressed in E. coli. Due to the poor solubility of the expressed full-length protein (Met 1-Gln 422), an N-terminally truncated protein starting at Ser residue at position 40 (Ser 40) was produced. This truncation corresponds to Ser 2 of JNK1 and JNK2 proteins, and is preceded by a methionine (initiation) and a glycine residue. The glycine residue was added in order to introduce an NcoI site for cloning into the expression vector. In addition, systematic C-terminal truncations were performed by PCR to identify a construct that give rise to diffraction-quality crystals. One such construct encodes amino acid residues Ser40-Glu402 of JNK3α1 and is preceded by Met and Gly residues.
Five mg of JNK3 was diluted to 0.5 mg/ml in 50 mM HEPES buffer, pH 7.5, containing 100 mM NaCl, 5 mM DTT, 20 mM MgCl2 and 1 mM ATP. GST-MKK7(DD) was added at a molar ratio of 1:2.5 GST-MKK7:JNK3. After incubation for 30 minutes at 25° C., the reaction mixture was concentrated 5-fold by ultrafiltration in a Centriprep-30 (Amicon, Beverly, Mass.), diluted to 10 ml and an additional 1 mM ATP added. This procedure was repeated three times to remove ADP and replenish ATP. The final addition of ATP was 5 mM and the mixture incubated overnight at 4° C.
The activated JNK3/GST-MKK7(DD) reaction mixture was exchanged into 50 mM HEPES buffer, pH 7.5, containing 5 mM DTT and 5% glycerol (w/v) by dialysis or ultrafiltration. The reaction mixture was adjusted to 1.1 M potassium phosphate, pH 7.5, and purified by hydrophobic interaction chromatography (at 25° C.) using a Rainin Hydropore column. […] Activated JNK3 (i.e. doubly phosphorylated JNK3) was stored at −70° C. at 0.25-1 mg/ml.
Compounds were assayed for the inhibition of JNK3 by a spectrophotometric coupled-enzyme assay. In this assay, a fixed concentration of activated JNK3 (10 nM) was incubated with various concentrations of a potential inhibitor dissolved in DMSO for 10 minutes at 30° C. in a buffer containing 0.1 M HEPES buffer, pH 7.5, containing 10 mM MgCl2, 2.5 mM phosphoenolpyruvate, 200 μM NADH, 150 μg/mL pyruvate kinase, 50 μg/mL lactate dehydrogenase, and 200 μM EGF receptor peptide. The EGF receptor peptide has the sequence […] (SEQ ID NO: 3), and is a phosphoryl acceptor in the JNK3-catalyzed kinase reaction. The reaction was initiated by the addition of 10 μM ATP and the assay plate is inserted into the spectrophotometer's assay plate compartment that was maintained at 30° C. The decrease of absorbance at 340 nm was monitored as a function of time. The rate data as a function of inhibitor concentration was fitted to competitive inhibition kinetic model to determine the Ki.
The compound numbers correspond to the compound numbers in Tables 1-3.

T1 sequence (P53779 40-402): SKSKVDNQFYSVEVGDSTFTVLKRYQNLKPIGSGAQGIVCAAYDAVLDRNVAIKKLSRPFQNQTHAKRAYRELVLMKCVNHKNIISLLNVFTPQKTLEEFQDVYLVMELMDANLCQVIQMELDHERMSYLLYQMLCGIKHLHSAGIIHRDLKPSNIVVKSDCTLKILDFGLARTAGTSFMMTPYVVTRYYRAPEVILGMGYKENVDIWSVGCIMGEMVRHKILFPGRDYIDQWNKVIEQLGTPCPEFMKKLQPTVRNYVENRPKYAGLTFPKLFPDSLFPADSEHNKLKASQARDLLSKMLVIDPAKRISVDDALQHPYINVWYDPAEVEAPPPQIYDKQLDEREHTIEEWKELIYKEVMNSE

Row | Compound | Ki [nM]
1 | COCn1c(-c2ccnc(Nc3ccc(F)cc3)n2)cnc1-c1ccccc1 [IIa-11] | > 1000
2 | COCn1c(-c2ccnc(Nc3ccccc3)n2)cnc1-c1ccccc1 [IIa-12] | > 1000
3 | COCn1c(-c2ccnc(Nc3ccc([N+](=O)[O-])cc3)n2)cnc1-c1ccccc1 [IIa-13] | > 1000
4 | COCn1c(-c2ccnc(Nc3cc(OC)cc(OC)c3)n2)cnc1-c1ccccc1 [IIa-15] | > 1000
5 | COCn1c(-c2ccnc(Nc3cccc(Br)c3)n2)cnc1-c1ccccc1 [IIa-16] | > 1000
6 | COCn1c(-c2ccnc(Nc3cccc(OCc4ccccc4)c3)n2)cnc1-c1ccccc1 [IIa-17] | > 1000
7 | COc1cccc(Nc2nccc(-c3cnc(-c4cccnc4)n3C)n2)c1 [IIa-18] | 100 to 1000
8 | COc1cc(Nc2nccc(-c3cnc(-c4cccnc4)n3C)n2)cc(OC)c1 [IIa-19] | 100 to 1000
9 | Cn1c(-c2ccnc(Nc3cccc(Br)c3)n2)cnc1-c1cccnc1 [IIa-20] | 100 to 1000
10 | Cn1c(-c2ccnc(Nc3ccc([N+](=O)[O-])cc3)n2)cnc1-c1cccnc1 [IIa-21] | 100 to 1000
11 | COC(=O)c1cccc(Nc2nccc(-c3cnc(-c4cccnc4)n3C)n2)c1 [IIa-22] | 100 to 1000
12 | Clc1ccc(Nc2nccc(-c3cnc(Cc4c(Cl)cccc4Cl)[nH]3)n2)cc1 [IIa-23] | 100 to 1000
13 | COc1cccc(Nc2nccc(-c3cnc(Cc4c(Cl)cccc4Cl)[nH]3)n2)c1 [IIa-25] | < 100
14 | COc1cc(Nc2nccc(-c3cnc(Cc4c(Cl)cccc4Cl)[nH]3)n2)cc(OC)c1 [IIa-26] | 100 to 1000
15 | Clc1cccc(Cl)c1Cc1ncc(-c2ccnc(Nc3cccc(Br)c3)n2)[nH]1 [IIa-27] | 100 to 1000
16 | Clc1cccc(Cl)c1Cc1ncc(-c2ccnc(Nc3ccccc3)n2)[nH]1 [IIa-28] | 100 to 1000
17 | Clc1cccc(Cl)c1Cc1ncc(-c2ccnc(Nc3cccc(OCc4ccccc4)c3)n2)[nH]1 [IIa-29] | 100 to 1000
18 | O=[N+]([O-])c1ccc(Nc2nccc(-c3cnc(Cc4c(Cl)cccc4Cl)[nH]3)n2)cc1 [IIa-30] | 100 to 1000
19 | COC(=O)c1cccc(Nc2nccc(-c3cnc(Cc4c(Cl)cccc4Cl)[nH]3)n2)c1 [IIa-31] | 100 to 1000
20 | Clc1ccc(Nc2nccc(-c3cnc(Cc4c(Cl)cccc4Cl)[nH]3)n2)cn1 [IIa-32] | 100 to 1000
21 | Clc1ccc(Nc2nccc(-c3cnc(-c4ccccc4)o3)n2)cc1 [IIb-1, (4-Chloro-phenyl)-[4-(2-phenyl-oxazol-5-yl)-pyrimidin-2yl]-amine] | > 1000
22 | Fc1ccc(Nc2nccc(-c3cnc(-c4ccccc4)o3)n2)cc1 [IIb-2] | 100 to 1000
23 | COc1cccc(Nc2nccc(-c3cnc(-c4ccccc4)o3)n2)c1 [IIb-3] | 100 to 1000
24 | COc1cc(Nc2nccc(-c3cnc(-c4ccccc4)o3)n2)cc(OC)c1 [IIb-4] | 100 to 1000
25 | c1ccc(Nc2nccc(-c3cnc(-c4ccccc4)o3)n2)cc1 [IIb-5] | 100 to 1000
26 | c1ccc(COc2cccc(Nc3nccc(-c4cnc(-c5ccccc5)o4)n3)c2)cc1 [IIb-6] | 100 to 1000
27 | O=[N+]([O-])c1ccc(Nc2nccc(-c3cnc(-c4ccccc4)o3)n2)cc1 [IIb-7] | 100 to 1000
28 | Cc1nc(-c2cccs2)sc1-c1ccnc(Nc2ccc(Cl)cc2)n1 [IIc-24] | > 1000
29 | Cc1nc(-c2cccs2)sc1-c1ccnc(Nc2ccc([N+](=O)[O-])cc2)n1 [IIc-25] | > 1000
